The test system of the assay is Caco-2 cells. In words: Evaluation of intestinal barrier function improvement: TEER reduction suppression in Caco-2 monolayer with inflammatory cytokines (TNFα, IL-1β, IFNγ). It is filed as cell-based, human. Conditions: for Synergistic effect (M.V./T/V/) / TEER reduction suppression ratio (%) +gallic acid (actual measurement value) (M.V.) / Synergistic effect (M.V./T.V.): combined use of phenolic compound and gallic acid; for TEER reduction suppression ratio (%) +gallic acid (theoretical value) (T.V.): sum of ratios of phenolic compound alone and gallic acid alone; for Relative value of TEER reduction suppression ratio: sample alone 1 μM; for Synergistic effect (relative value of actual measurement value / relative value of theoretical value): combined use of the phenolic compound with gallic acid, 1 μM each (Table 1). An excerpt:
The intestinal barrier function improvement effect is indicated by, for example, increase in the electrical resistance value (transepithelial electric resistance: TEER) of the intestinal epithelial cells or suppression of the decrease in the TEER. A substance increasing the TEER or suppressing the decrease thereof has the action of normalizing or strengthening the tight junction in the intestinal epithelial cells. The intestinal barrier function improvement effect is also indicated by decrease in the amount of a substance permeating from the intestinal side of the intestinal epithelial cells to the inside of the body. The person skilled in the art can select a specific method of evaluating the intestinal barrier function improvement effect depending on the purpose. For exarple, as shown in Examples to be described later, a method for measuring TEER using an intestinal permeation model using human intestinal epithelial cells (Caco-2 cells) can be used. Specifically, inflammatory cytokine (TNFα, IL-1β, IFNγ and the like) is added into Caco-2 monolayer cultured cells to produce a state where the intestinal barrier function can be collapsed in human. If the addition of a test substance suppresses the decrease in the TEER as compared with the case where the substance is not added, the test substance can be evaluated to have the intestinal barrier function improvement effect.
Caco-2 cells were cultured for three weeks at 37° C. in Transwell (manufactured by Millicell Corporation) using DMEM (Dulbecco's modified Eagle's medium). A medium was removed from a plate of cultured Caco-2 cells, and the well was washed 3 times with serum-free DMEM. The well was filled with the medium. Then, the transepithelial electrical resistance (TEER) of Caco-2 monolayer cells was measured by Millicell-ERS (manufactured by Millipore Corporation). Cells (TEER≥1000 Ω·cm^2) determined that a sufficient tight junction was formed were selected, and used for the next screening. Then, to test solutions (media) on both apical and basolateral membrane sides, a sample, TNFα (40 ng/mL), IL-1β (20 ng/mL), and IFNγ (10 ng/mL) were added, followed by cultivating for 48 hours. The sample was dissolved in dimethyl sulfoxide (DMSO), and the solution was then added to the test solutions. In this case, a well to which inflammatory cytokine (TNFα, IL-1β, and IFNγ) and the sample were not added was provided as normal. A well to which inflammatory cytokine was added and the sample was not added was provided as control. After the cultivation, TEER was measured again, to evaluate whether the sample suppressed the reduction (decrease) of TEER due to the inflammatory cytokine.
The TEER reduction suppression ratio (%) due to the sample was determined according to the following formula from the TEER values of the well to which the sample was added, normal, and control.
(Calculating formula of TEER reduction suppression ratio) TEER reduction suppression ratio (%)=100×((TEER of well to which sample is added)−(TEER of control))/((TEER of normal)−(TEER of control))
In this evaluation system, as the TEER reduction suppression ratio (%) is higher, an intestinal barrier function improvement effect is higher.

Consider `O=c1c(O)c(-c2cc(O)c(O)c(O)c2)oc2cc(O)cc(O)c12` [Myricetin, myricetin], for which, for the setting “each 10 μM”, the “Synergistic effect (M.V./T/V/)” value stood at 1.2 and the “TEER reduction suppression ratio (%) +gallic acid (actual measurement value) (M.V.)” value came out at 75%.

Regarding `O=C(O[C@@H]1O[C@@H]2COC(=O)c3cc(O)c(O)c(O)c3-c3c(cc(O)c(O)c3O)C(=O)O[C@H]([C@H]1O)[C@@H]2O)c1cc(O)c(O)c(O)c1` [Corilagin, corilagin], under “each 1 μM”, the “Synergistic effect (M.V./T.V.)” value came out at 3.4 and the “TEER reduction suppression ratio (%) +gallic acid (actual measurement value) (M.V.)” value is given as 76%.

For the compound `O=c1c(-c2ccc(O)cc2)coc2cc(O)cc(O)c12` [Genistein, genistein], under “each 10 μM”, the “Synergistic effect (M.V./T/V/)” value is 1.6 and the “TEER reduction suppression ratio (%) +gallic acid (actual measurement value) (M.V.)” value is listed as 58%.

In the case of stenophyllanin B, where the note is “each 1 μM”, the “Synergistic effect (M.V./T.V.)” value amounted to 1.3 and the “TEER reduction suppression ratio (%) +gallic acid (actual measurement value) (M.V.)” value is given as 82%. Moreover, for the setting “1 μM each”, the “TEER reduction suppression ratio (%) +gallic acid (theoretical value) (T.V.)” value is reported as 66%.

Consider `O=C1C[C@@H](c2ccc(O)cc2)Oc2cc(O)cc(O)c21` [Naringenin, naringenin], for which, under “each 10 μM”, the “Synergistic effect (M.V./T/V/)” value was 2.0 and the “TEER reduction suppression ratio (%) +gallic acid (actual measurement value) (M.V.)” value was determined as 61%.

As to stenophyllanin A, for the setting “each 1 μM”, the “Synergistic effect (M.V./T.V.)” value amounted to 1.7 and the “TEER reduction suppression ratio (%) +gallic acid (actual measurement value) (M.V.)” value is recorded as 95%. For the same compound, the “TEER reduction suppression ratio (%) +gallic acid (theoretical value) (T.V.)” value (1 μM each) worked out at 56%.

For the compound `O=C(OC[C@H]1O[C@@H](OC(=O)c2cc(O)c(O)c(O)c2)[C@H](OC(=O)c2cc(O)c(O)c(O)c2)[C@@H](O)[C@@H]1OC(=O)c1cc(O)c(O)c(O)c1)c1cc(O)c(O)c(O)c1` [1,2,4,6-tetra-O-galloyl-β-D-glucose], where the note is “each 1 μM”, the “Synergistic effect (M.V./T.V.)” value is reported as 1.4 and the “TEER reduction suppression ratio (%) +gallic acid (actual measurement value) (M.V.)” value is given as 56%.

`Oc1cc(O)cc(/C=C/c2ccc(O)c(O)c2)c1` [Piceatannol, piceatannol]: for the setting “each 10 μM”, the “Synergistic effect (M.V./T/V/)” value is 1.1 and the “TEER reduction suppression ratio (%) +gallic acid (actual measurement value) (M.V.)” value is 53%.

In the case of `O=C(/C=C/c1ccc(O)cc1)c1c(O)cc(O)cc1O` [Naringenin chalcone, 4,2′,4′,6′-tetra-hydroxy chalcone], for the setting “each 10 μM”, the “Synergistic effect (M.V./T/V/)” value is recorded as 1.7 and the “TEER reduction suppression ratio (%) +gallic acid (actual measurement value) (M.V.)” value was 51%.

In the case of `O=C(OC[C@H]1O[C@@H](OC(=O)c2cc(O)c(O)c(O)c2)[C@H](OC(=O)c2cc(O)c(O)c(O)c2)[C@@H](OC(=O)c2cc(O)c(O)c(O)c2)[C@@H]1OC(=O)c1cc(O)c(O)c(O)c1)c1cc(O)c(O)c(O)c1` [1,2,3,4,6-penta-O-galloyl-β-D-glucose], where the note is “each 1 μM”, the “Synergistic effect (M.V./T.V.)” value is on record as 1.4 and the “TEER reduction suppression ratio (%) +gallic acid (actual measurement value) (M.V.)” value was 91%.

Regarding `COc1cc(-c2[o+]c3cc(O)cc(O)c3cc2O)cc(O)c1O` [Petunidin chloride, petunidin chloride], under “each 10 μM”, the “Synergistic effect (M.V./T/V/)” value is reported as 1.9 and the “TEER reduction suppression ratio (%) +gallic acid (actual measurement value) (M.V.)” value was determined as 70%.

As for `O=C(O[C@@H]1Cc2c(O)cc(O)cc2O[C@@H]1c1ccc(O)c(O)c1)c1cc(O)c(O)c(O)c1` [Epicatechin gallate, epicatechin gallate], under “each 10 μM”, the “Synergistic effect (M.V./T/V/)” value came out at 2.3 and the “TEER reduction suppression ratio (%) +gallic acid (actual measurement value) (M.V.)” value is 110%.

Consider `O=c1cc(-c2ccc(O)cc2)oc2cc(O)cc(O)c12` [Apigenin, apigenin], for which, where the note is “each 10 μM”, the “Synergistic effect (M.V./T/V/)” value turned out to be 4.1 and the “TEER reduction suppression ratio (%) +gallic acid (actual measurement value) (M.V.)” value amounted to 51%.

As to `Oc1cc(O)c2c(c1)O[C@H](c1ccc(O)c(O)c1)[C@H](O)C2` [Epicatechin (EC), epicatechin], the “Synergistic effect (relative value of actual measurement value / relative value of theoretical value)” value is recorded as 1.7. Besides, the “Relative value of TEER reduction suppression ratio” value (Evaluation 2, epicatechin (EC) set to 1.0) is on record as 1.0.

For the compound catechin [Catechin (CA)], the “Synergistic effect (relative value of actual measurement value / relative value of theoretical value)” value was found to be 2.0. Also, the “Relative value of TEER reduction suppression ratio” value (Evaluation 1, catechin (CA) set to 1.0) worked out at 1.0.

For `Oc1cc(O)c2c(c1)O[C@H](c1ccc(O)c(O)c1)[C@H](O)[C@H]2c1c(O)cc(O)c2c1O[C@H](c1ccc(O)c(O)c1)[C@@H](O)C2` [Procyanidin B1, procyanidin B1], for the setting “each 10 μM”, the “Synergistic effect (M.V./T/V/)” value is recorded as 2.4 and the “TEER reduction suppression ratio (%) +gallic acid (actual measurement value) (M.V.)” value was determined as 74%. Moreover, the “TEER reduction suppression ratio (%) +gallic acid (theoretical value) (T.V.)” value (10 μM each) was 31%.

On to `O=C(O[C@@H]1COC(=O)c2cc(O)c(O)c(O)c2-c2c(cc(O)c(O)c2O)C(=O)O[C@H]1[C@@H]1OC(=O)c2cc(O)c(O)c(O)c2-c2c(O)c(O)c(O)c3c2C(=O)O[C@H]1[C@@H]3O)c1cc(O)c(O)c(O)c1` [Casuarinin, casuarinin], for which, for the setting “each 1 μM”, the “Synergistic effect (M.V./T.V.)” value came out at 1.4 and the “TEER reduction suppression ratio (%) +gallic acid (actual measurement value) (M.V.)” value turned out to be 81%.

Turning to `O=c1c(O)cc([C@H]2Oc3cc(O)cc(O)c3C[C@H]2O)cc2c([C@H]3Oc4cc(O)cc(O)c4C[C@H]3O)cc(O)c(O)c12` [Theaflavin, theaflavin], for the setting “each 10 μM”, the “Synergistic effect (M.V./T/V/)” value was determined as 1.6 and the “TEER reduction suppression ratio (%) +gallic acid (actual measurement value) (M.V.)” value is given as 98%.

With `O=C(O)/C=C/c1cccc(O)c1` [3-Coumaric acid, 3-coumaric acid], where the note is “each 10 μM”, the “Synergistic effect (M.V./T/V/)” value came to 1.2 and the “TEER reduction suppression ratio (%) +gallic acid (actual measurement value) (M.V.)” value came out at 48%.

Consider `OC[C@H]1O[C@@H](Oc2cc(O)cc(/C=C/c3ccc(O)cc3)c2)[C@H](O)[C@@H](O)[C@@H]1O` (relative stereo) [trans-Piceid, trans-piceid], for which, for the setting “each 10 μM”, the “Synergistic effect (M.V./T/V/)” value came out at 1.5 and the “TEER reduction suppression ratio (%) +gallic acid (actual measurement value) (M.V.)” value worked out at 65%. In addition, the “TEER reduction suppression ratio (%) +gallic acid (theoretical value) (T.V.)” value (10 μM each) is 45%.

The values above are taken from US20200315998A1, “COMPOSITION FOR IMPROVING INTESTINAL BARRIER FUNCTION” (SUNTORY HOLDINGS LIMITED, priority 2017, published 2020).
